Row | glass transition temperature [°C] | SMILES
1 | 126.00 | *Oc1cccc(NC(=O)c2ccc(C(=O)Nc3ccc(Oc4ccc(C(=O)c5ccc(*)cc5)cc4)cc3)cc2)c1 (repeat unit)
2 | 143.50 | *CC(*)(C)C(=O)OCC1OC(n2ccc(=O)[nH]c2=O)C(O)C1O (repeat unit)
3 | 240.00 | *Nc1ccc(C(c2ccc(NC(=O)c3cc(NC(=O)CCCN4C(=O)c5ccccc5C4=O)cc(C(*)=O)c3)cc2)(C(F)(F)F)C(F)(F)F)cc1 (repeat unit)
4 | 286.10 | *c1ccc2c(c1)C(=O)N(c1c(C)cc(C(c3cccc(C(F)(F)F)c3)c3cc(C)c(N4C(=O)c5ccc(C(*)(C(F)(F)F)C(F)(F)F)cc5C4=O)c(C)c3)cc1C)C2=O (repeat unit)
5 | -44.00 | *CCCCCCCC(=O)OCCCCC1COC(*)O1 (repeat unit)
6 | 200.00 | */C(=C(/*)c1ccc(C(C)(C)C)cc1)c1ccccc1 (repeat unit)
7 | 147.00 | *Oc1ccc(CC(C#N)(C#N)Cc2ccc(*)cc2)cc1 (repeat unit)
8 | 289.00 | *c1c(C)cc(Cc2cc(C)c(N3C(=O)c4cccc(Oc5c(C)cc(-c6cc(C)c(Oc7cccc8c7C(=O)N(*)C8=O)c(C)c6)cc5C)c4C3=O)c(C)c2)cc1C (repeat unit)
9 | 166.00 | *Nc1cc(NC(=O)c2cc(NC(=O)C(C(C)CC)N3C(=O)c4ccccc4C3=O)cc(C(*)=O)c2)ccc1C (repeat unit)
10 | 86.00 | *CCCCCCc1nc2cc(NC(=O)CCCCCCCCC(=O)Nc3ccc4oc(*)nc4c3)ccc2o1 (repeat unit)
11 | 3.00 | *OC(C)CCOC(=O)C(CCCCCCOc1ccc(/N=C/c2ccc([N+](=O)[O-])cc2)cc1)C(*)=O (repeat unit)
12 | 258.00 | *c1cccc(C(=O)Nc2ccc(Oc3ccc(S(=O)(=O)c4ccc(Oc5ccc(NC(=O)c6cccc(N7C(=O)c8ccc(-c9ccc%10c(c9)C(=O)N(*)C%10=O)cc8C7=O)c6)cc5)cc4)cc3)cc2)c1 (repeat unit)
13 | 251.00 | *C(=O)c1ccc2c(c1)C(=O)N(c1cccc(C(=O)c3ccc(Oc4ccc(N5C(=O)c6ccc(*)cc6C5=O)cc4)cc3)c1)C2=O (repeat unit)
14 | -13.00 | *CCCCCCOC(=O)OCCCCCCOC(=O)OCCCCCCOc1ccc(Oc2ccc(O*)cc2)cc1 (repeat unit)
15 | 141.00 | */C=C/c1ccc(*)c(-c2c(OCC(CC)CCCC)ccc3cc(-c4ccccc4)ccc23)c1 (repeat unit)
16 | 289.50 | *c1ccc(Oc2c(C)cc(C(c3cc(C)c(Oc4ccc(N5C(=O)c6ccc(-c7ccc8c(c7)C(=O)N(*)C8=O)cc6C5=O)cc4)c(C)c3)c3cccc4ccccc34)cc2C)cc1 (repeat unit)
17 | 305.00 | *C(=O)c1ccc2c(c1)C(=O)N(c1ccc(Cl)c(N3C(=O)c4ccc(*)cc4C3=O)c1)C2=O (repeat unit)
18 | 221.00 | *c1ccc(-c2nc3cc(C)ccc3o2)c(*)c1 (repeat unit)
19 | 240.00 | *C(=O)c1ccc2c(c1)C(=O)N(c1cccc(Cc3ccc(Cc4cccc(N5C(=O)c6ccc(*)cc6C5=O)c4)cc3)c1)C2=O (repeat unit)
20 | 364.00 | *c1ccc(-c2ccc(-c3cc(-c4ccc(Oc5ccc(-c6ccccc6)cc5)cc4)c4cc(-c5ccc6nc(*)cc(-c7ccc(Oc8ccc(-c9ccccc9)cc8)cc7)c6c5)ccc4n3)cc2)cc1 (repeat unit)
21 | 266.00 | *c1ccc2c(c1)C(=O)N(c1ccc(C(=O)Nc3ccc(Oc4ccc(C(C)(C)c5ccc(Oc6ccc(NC(=O)c7ccc(N8C(=O)c9ccc(C(*)(C(F)(F)F)C(F)(F)F)cc9C8=O)cc7)cc6)cc5)cc4)cc3)cc1)C2=O (repeat unit)
22 | -6.50 | *CCOC(=O)CCCCCCCCC(=O)OCCOC(=O)c1ccc(C(=O)O*)cc1 (repeat unit)
23 | 260.00 | *c1ccc(Oc2ccc(-c3nc4cc(Oc5ccc(NC(=O)CN6C(=O)c7ccc(C(c8ccc9c(c8)C(=O)N(CC(=O)Nc8ccc(Oc%10ccc%11nc(-c%12ccccc%12)c(*)nc%11c%10)cc8)C9=O)(C(F)(F)F)C(F)(F)F)cc7C6=O)cc5)ccc4nc3-c3ccccc3)cc2)cc1 (repeat unit)
24 | 92.00 | *CC(O)COc1ccc(C(C)(C)c2ccc(OCC(O)COc3cccc(NC(=O)CCCCCCC(=O)Nc4cccc(O*)c4)c3)cc2)cc1 (repeat unit)
25 | 334.00 | *c1ccc(Oc2ccc(C3(c4ccc(Oc5ccc(-c6nnc(*)c7c(-c8ccccc8)c(-c8ccc9ccccc9c8)c(-c8ccc9ccccc9c8)c(-c8ccccc8)c67)cc5)cc4)c4ccccc4-c4ccccc43)cc2)cc1 (repeat unit)
26 | 70.00 | *Oc1ccc(OC(=O)c2ccc(OCCCCCCCCOc3ccc(C(*)=O)cc3)cc2)cc1C(=O)CC (repeat unit)
27 | 16.00 | *CCOCCOC(=O)c1cccc(C(=O)O*)c1 (repeat unit)

Row | glass transition temperature [°C] | SMILES
28 | 338.00 | *c1cccc(NC(=O)c2cccc(C(=O)Nc3cccc(-n4c(=O)c5cc6c(=O)n(*)c(=O)c6cc5c4=O)c3)c2)c1 (repeat unit)
29 | 223.2 | *c1cccc(Oc2ccc(S(=O)(=O)c3ccc(Oc4cccc(-n5c(=O)c6cc7c(=O)n(*)c(=O)c7cc6c5=O)c4)cc3)cc2)c1 (repeat unit)
30 | 154.00 | *C(=O)Nc1cccc(Oc2ccc(C(=O)c3ccc(Oc4cccc(NC(=O)c5ccc(*)nc5)c4)cc3)cc2)c1 (repeat unit)
31 | 290.00 | *Oc1ccc(-c2ccc(Oc3ccc(C(=O)c4c(C(=O)c5ccc(*)cc5)c(-c5ccccc5)c(-c5ccc6ccccc6c5)c(-c5ccc6ccccc6c5)c4-c4ccccc4)cc3)cc2)cc1 (repeat unit)
32 | 324.00 | *c1ccc2c(c1)C(=O)N(c1cc(N3C(=O)c4ccc(C(*)(C(F)(F)F)C(F)(F)F)cc4C3=O)c(O)cc1O)C2=O (repeat unit)
33 | 80.00 | *CC(*)OC(=O)c1cccc([Si](C)(C)C)c1 (repeat unit)
34 | 66.00 | *CC(*)c1ccc(C(=O)OCCCCCC)cc1 (repeat unit)
35 | 268.20 | *c1ccc(Oc2ccc(N3C(=O)c4ccc(C(c5ccc6c(c5)C(=O)N(c5ncc(*)s5)C6=O)(C(F)(F)F)C(F)(F)F)cc4C3=O)cc2)cc1 (repeat unit)
36 | 213.00 | *Nc1ccc(C(=O)c2ccc(C(=O)c3ccc(Nc4ccc5c(c4)c4cc(*)ccc4n5CC(CC)CCCC)cc3)cc2)cc1 (repeat unit)
37 | 180.00 | *c1ccc(-c2ccc(N(*)c3ccc(CCCC)cc3)cc2)cc1 (repeat unit)
38 | 266.00 | *c1ccc(S(=O)(=O)c2ccc(-n3nccc3-c3ccc(-c4ccnn4*)cc3)cc2)cc1 (repeat unit)
39 | 39.00 | *CNC(=O)OCc1ccc(COCc2ccc(COC(=O)NCc3ccc(C(C)(C)c4ccc(*)o4)o3)o2)o1 (repeat unit)
40 | 129.00 | *CCOCCOCCOc1ccc(NC(=O)c2cccc(C(=O)Nc3ccc(O*)cc3)c2)cc1 (repeat unit)
41 | 342.00 | *Oc1ccc(C2(c3ccc(OC(=O)c4ccc(C(*)=O)cc4)cc3)c3ccccc3Cc3ccccc32)cc1 (repeat unit)
42 | 208.00 | *C(=O)Nc1ccc(NC(=O)Nc2ccc(NC(=O)c3ccc4c(c3)C(=O)N(c3ccc(NC(=O)Nc5ccc(N6C(=O)c7ccc(*)cc7C6=O)cc5)cc3)C4=O)cc2)cc1 (repeat unit)
43 | 61.00 | *C(CC)COC(=O)NCCCCCCNC(=O)OCC(CC)n1c(=O)c2cc3c(=O)n(*)c(=O)c3cc2c1=O (repeat unit)
44 | 275.50 | *c1ccc(C(=O)c2ccc(-n3nc(-c4ccccc4)c4cc(Oc5ccc6c(-c7ccccc7)nn(*)c(=O)c6c5)ccc4c3=O)cc2)cc1 (repeat unit)
45 | 95.00 | *CC(*)(C)C(=O)OCCN(CC)c1ccc(/N=N/c2ccc(OC)cc2)c(C)c1 (repeat unit)
46 | 200.00 | *CC(*)(C)C(=O)OCC1CC(NC(=O)C2CC(NC(=O)OC(C)(C)C)CN2C(=O)OC(C)(C)C)CN1C(=O)C1CC(NC(=O)OC(C)(C)C)CN1C(=O)OC(C)(C)C (repeat unit)
47 | 146.00 | *CCN(CCOC(=O)NCC1(C)CC(NC(=O)O*)CC(C)(C)C1)c1ccc(/N=N/c2ccc(B(c3c(C)cc(C)cc3C)c3c(C)cc(C)cc3C)cc2)cc1 (repeat unit)
48 | 287.00 | *c1ccc(Oc2ccc(-c3ccc(-c4ccc(Oc5ccc(-c6c7c(c(*)c8ccccc68)C(=O)N(c6ccccc6)C7=O)cc5)c(C(F)(F)F)c4)s3)cc2C(F)(F)F)cc1 (repeat unit)
49 | 339.00 | *c1ccc2c(c1)C(=O)N(c1ccc(-c3cc(-c4ccc(OCCCC#N)cc4)cc(-c4ccc(N5C(=O)c6ccc(C(*)(C(F)(F)F)C(F)(F)F)cc6C5=O)cc4)n3)cc1)C2=O (repeat unit)
50 | -19.00 | *CC(*)(CC(=O)OCCOCCOCCOC)C(=O)OCCOCCOCCOC (repeat unit)
51 | 40.00 | *Oc1ccc(CC(NC(=O)CCc2ccc(OC(=O)CCC(*)=O)cc2)C(=O)OCCCCCCCCCCCC)cc1 (repeat unit)
52 | 13.00 | *CCCCOC(=O)OCC1CCC(COC(=O)O*)CC1 (repeat unit)
53 | -60.00 | *CC(CC)(CC)COC(=O)Nc1ccc(C)c(NC(=O)O*)c1 (repeat unit)

Row | SMILES | glass transition temperature [°C]
54 | *CC(*)c1c(C)cc(C)cc1C (repeat unit) | 126.00
55 | *CCN(*)C(=O)CCCCC (repeat unit) | 7.00
56 | */C(F)=C(\F)C(F)(C(*)(F)F)C(F)(F)F (repeat unit) | -3.00
57 | *OC(CCc1ccccc1)CC(*)=O (repeat unit) | 18.00
58 | *CCSSSSCCO* (repeat unit) | -40.00
59 | *CC(*)OC(=O)CCCC1CCCCC1 (repeat unit) | -10.00
60 | */C=C/* (repeat unit) | -4.00
61 | *CC1(*)CCCCC1 (repeat unit) | 100.00
62 | *CC(O)CN(*)c1ccccc1 (repeat unit) | 78.50
63 | *CC(*)OC(=O)c1ccccc1Cl (repeat unit) | 55.8

From the PolyMetriX glass transition set
